{"source": "ChEMBL document CHEMBL1128064", "about": "“Discovery of L-740,515, a potent thienopyridine cysLT1 receptor (LTD4 receptor) antagonist” (Bioorg Med Chem Lett, 1995)", "key": {"[1]": {"assay": "Bioavailability in squirrel monkey (dose 5 mg/kg)", "format": "ADME, organism-based, Saimiri sciureus", "details": "in vivo"}, "[2]": {"assay": "Terminal half life of the compound.", "format": "ADME"}, "[3]": {"target": "Cysteinyl leukotriene receptor 1 (Cavia porcellus)", "assay": "Inhibition of binding of [3H]LTD4 to guinea pig lung membrane"}, "[4]": {"target": "T1, Cysteinyl leukotriene receptor 1 (Homo sapiens, UniProt Q9Y271)", "T1 sequence (Q9Y271 whole entry)": "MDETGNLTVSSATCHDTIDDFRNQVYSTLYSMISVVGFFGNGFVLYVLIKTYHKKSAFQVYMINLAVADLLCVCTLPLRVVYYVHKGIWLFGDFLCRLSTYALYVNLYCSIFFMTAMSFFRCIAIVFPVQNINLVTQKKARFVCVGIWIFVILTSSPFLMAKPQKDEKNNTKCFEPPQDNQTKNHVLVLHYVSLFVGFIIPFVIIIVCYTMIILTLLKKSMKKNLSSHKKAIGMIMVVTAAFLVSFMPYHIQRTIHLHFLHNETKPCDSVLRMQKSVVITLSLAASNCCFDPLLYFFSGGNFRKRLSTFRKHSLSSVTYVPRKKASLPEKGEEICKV", "assay": "Inhibition of binding of [ H]-LTD4 to DMSO differentiated U937 cell membranes", "parameters": "species or system U-937"}, "[5]": {"assay": "Clearance was estimated in two squirrel monkeys after iv administration at 5 mg/kg", "format": "ADME, organism-based", "parameters": "dose 5 mg/kg, route intravenous", "details": "in vivo"}, "[6]": {"target": "Cysteinyl leukotriene receptor 1 (Cavia porcellus)", "assay": "Inhibition of binding of [3H]LTD4 to guinea pig lung membrane supplemented with 0.05% human serum albumin(HSA)"}, "[7]": {"assay": "Compound was tested on dU937 cell membranes using LTC4 binding assays", "format": "functional, Homo sapiens"}, "[8]": {"assay": "Compound was tested on PMN membranes using LTD4 binding assays", "format": "functional, Homo sapiens"}}, "note": "pIC50: −log10 of the molar value.", "data": [{"compound": "O=C(O)CC1(CS[C@H](CCc2ccccc2C(O)(C(F)(F)F)C(F)(F)F)c2cccc(/C=C/c3ccc4sc(Cl)c(Cl)c4n3)c2)CC1", "values": [{"measurement": "bioavailability", "setting": "[1]", "value": 2, "unit": "%"}, {"measurement": "half-life", "setting": "[2]", "value": 11, "unit": "h"}, {"measurement": "IC50", "setting": "[3]", "value": 4.12, "unit": "nM"}, {"measurement": "pIC50", "setting": "[4]", "value": 8.19}, {"measurement": "clearance", "setting": "[5]", "value": 0.9, "unit": "mL/min/kg"}, {"measurement": "IC50", "setting": "[6]", "value": 1.21, "unit": "nM"}]}, {"compound": "CC(C)(O)c1ccc(CC[C@@H](SCC2(CC(=O)O)CC2)c2cccc(/C=C/c3ccc4sc(Cl)c(Cl)c4n3)c2)cc1", "values": [{"measurement": "bioavailability", "setting": "[1]", "value": 35, "unit": "%"}, {"measurement": "IC50", "setting": "[3]", "value": 0.56, "unit": "nM"}, {"measurement": "pIC50", "setting": "[4]", "value": 9.42}, {"measurement": "clearance", "setting": "[5]", "value": 6.6, "unit": "mL/min/kg"}, {"measurement": "IC50", "setting": "[6]", "value": 0.2, "unit": "nM"}]}, {"compound": "O=C(O)CC1(CS[C@H](CCc2cccc(C3(O)CCC3)c2)c2cccc(/C=C/c3ccc4sc(Cl)c(Cl)c4n3)c2)CC1", "values": [{"measurement": "bioavailability", "setting": "[1]", "value": 13, "unit": "%"}, {"measurement": "IC50", "setting": "[3]", "value": 0.44, "unit": "nM"}, {"measurement": "pIC50", "setting": "[4]", "value": 9.33}, {"measurement": "clearance", "setting": "[5]", "value": 2.6, "unit": "mL/min/kg"}, {"measurement": "IC50", "setting": "[6]", "value": 0.24, "unit": "nM"}]}, {"compound": "CC(C)(O)c1ccccc1CC[C@@H](SCC1(CC(=O)O)CC1)c1cccc(COc2ccc3sc(Cl)c(Cl)c3n2)c1", "values": [{"measurement": "IC50", "setting": "[3]", "value": "> 150", "unit": "nM"}, {"measurement": "pIC50", "setting": "[4]", "value": "< 6.82"}, {"measurement": "IC50", "setting": "[6]", "value": "> 150", "unit": "nM"}]}, {"compound": "CC(C)(O)c1ccccc1CC[C@@H](SCC1(CC(=O)O)CC1)c1cccc(/C=C/c2ccc3sc(F)c(F)c3n2)c1", "values": [{"measurement": "bioavailability", "setting": "[1]", "value": 25, "unit": "%"}, {"measurement": "half-life", "setting": "[2]", "value": 2.5, "unit": "h"}, {"measurement": "clearance", "setting": "[5]", "value": 1.61, "unit": "mL/min/kg"}]}, {"compound": "CC(C)(O)c1ccccc1CC[C@@H](SCC1(CC(=O)O)CC1)c1cccc(/C=C/c2ccc3sc(Cl)cc3n2)c1", "values": [{"measurement": "bioavailability", "setting": "[1]", "value": 31, "unit": "%"}, {"measurement": "clearance", "setting": "[5]", "value": 1.2, "unit": "mL/min/kg"}]}, {"compound": "O=C(O)CC1(CS[C@H](CCc2ccccc2C2(O)CCC2)c2cccc(/C=C/c3ccc4sc(Cl)c(Cl)c4n3)c2)CC1", "values": [{"measurement": "bioavailability", "setting": "[1]", "value": 22, "unit": "%"}, {"measurement": "IC50", "setting": "[3]", "value": 0.74, "unit": "nM"}, {"measurement": "pIC50", "setting": "[4]", "value": 8.98}, {"measurement": "clearance", "setting": "[5]", "value": 1, "unit": "mL/min/kg"}, {"measurement": "IC50", "setting": "[6]", "value": 0.34, "unit": "nM"}]}, {"compound": "O=C(O)CC1(CS[C@H](CCc2ccc(C3(O)CCC3)cc2)c2cccc(/C=C/c3ccc4sc(Cl)c(Cl)c4n3)c2)CC1", "values": [{"measurement": "bioavailability", "setting": "[1]", "value": 15, "unit": "%"}, {"measurement": "half-life", "setting": "[2]", "value": 2, "unit": "h"}, {"measurement": "IC50", "setting": "[3]", "value": 0.58, "unit": "nM"}, {"measurement": "pIC50", "setting": "[4]", "value": 9.19}, {"measurement": "clearance", "setting": "[5]", "value": 4.7, "unit": "mL/min/kg"}, {"measurement": "IC50", "setting": "[6]", "value": 0.29, "unit": "nM"}]}, {"compound": "O=C(O)CC1(CS[C@H](CCc2ccc(Br)cc2)c2cccc(/C=C/c3ccc4sc(Cl)c(Cl)c4n3)c2)CC1", "values": [{"measurement": "bioavailability", "setting": "[1]", "value": 3, "unit": "%"}, {"measurement": "half-life", "setting": "[2]", "value": 5.1, "unit": "h"}, {"measurement": "IC50", "setting": "[3]", "value": 1.95, "unit": "nM"}, {"measurement": "pIC50", "setting": "[4]", "value": 8.33}, {"measurement": "clearance", "setting": "[5]", "value": 1.6, "unit": "mL/min/kg"}, {"measurement": "IC50", "setting": "[6]", "value": 1.03, "unit": "nM"}]}, {"compound": "CC(C)(O)c1ccccc1CC[C@@H](SCC1(CC(=O)O)CC1)c1cccc(C2CC2c2ccc3sc(Cl)c(Cl)c3n2)c1", "note": "(some centres not stated)", "values": [{"measurement": "IC50", "setting": "[3]", "value": 10.9, "unit": "nM"}, {"measurement": "pIC50", "setting": "[4]", "value": 7.80}, {"measurement": "IC50", "setting": "[6]", "value": 9.12, "unit": "nM"}]}, {"compound": "CC(C)(O)c1ccccc1CC[C@@H](SCC1(CC(=O)O)CC1)c1cccc(/C=C/c2ccc3scc(Cl)c3n2)c1", "values": [{"measurement": "bioavailability", "setting": "[1]", "value": 13, "unit": "%"}, {"measurement": "IC50", "setting": "[3]", "value": 0.54, "unit": "nM"}, {"measurement": "pIC50", "setting": "[4]", "value": 8.72}, {"measurement": "clearance", "setting": "[5]", "value": 0.39, "unit": "mL/min/kg"}, {"measurement": "IC50", "setting": "[6]", "value": 1.58, "unit": "nM"}]}, {"compound": "O=C(O)CC1(CS[C@H](CCc2ccc(C(F)(F)F)cc2)c2cccc(/C=C/c3ccc4sc(Cl)c(Cl)c4n3)c2)CC1", "values": [{"measurement": "bioavailability", "setting": "[1]", "value": 4, "unit": "%"}, {"measurement": "IC50", "setting": "[3]", "value": 3.84, "unit": "nM"}, {"measurement": "pIC50", "setting": "[4]", "value": 8.06}, {"measurement": "clearance", "setting": "[5]", "value": 1.4, "unit": "mL/min/kg"}, {"measurement": "IC50", "setting": "[6]", "value": 1.43, "unit": "nM"}]}, {"compound": "O=C(O)CC1(CS[C@H](CCc2ccccc2Br)c2cccc(/C=C/c3ccc4sc(Cl)c(Cl)c4n3)c2)CC1", "values": [{"measurement": "bioavailability", "setting": "[1]", "value": 3, "unit": "%"}, {"measurement": "half-life", "setting": "[2]", "value": 8.8, "unit": "h"}, {"measurement": "IC50", "setting": "[3]", "value": 2.6, "unit": "nM"}, {"measurement": "pIC50", "setting": "[4]", "value": 8.61}, {"measurement": "clearance", "setting": "[5]", "value": 0.46, "unit": "mL/min/kg"}, {"measurement": "IC50", "setting": "[6]", "value": 1.93, "unit": "nM"}]}, {"compound": "CC(C)(O)c1ccccc1CC[C@@H](SCC1(CC(=O)O)CC1)c1cccc(OCc2ccc3sc(Cl)c(Cl)c3n2)c1", "values": [{"measurement": "IC50", "setting": "[3]", "value": 0.42, "unit": "nM"}, {"measurement": "pIC50", "setting": "[4]", "value": 8.70}, {"measurement": "IC50", "setting": "[6]", "value": 2.2, "unit": "nM"}]}, {"compound": "O=C(O)CC1(CS[C@H](CCc2ccccc2CO)c2cccc(/C=C/c3ccc4sc(Cl)c(Cl)c4n3)c2)CC1", "values": [{"measurement": "IC50", "setting": "[3]", "value": 0.48, "unit": "nM"}, {"measurement": "pIC50", "setting": "[4]", "value": 9.14}, {"measurement": "clearance", "setting": "[5]", "value": 3.5, "unit": "mL/min/kg"}, {"measurement": "IC50", "setting": "[6]", "value": 0.48, "unit": "nM"}]}, {"compound": "CC(C)(O)c1ccccc1CC[C@@H](SCC1(CC(=O)O)CC1)c1cccc(/C=C/c2ccc3sccc3n2)c1", "values": [{"measurement": "IC50", "setting": "[3]", "value": 1.31, "unit": "nM"}, {"measurement": "pIC50", "setting": "[4]", "value": 8.07}, {"measurement": "IC50", "setting": "[6]", "value": 20.4, "unit": "nM"}]}, {"compound": "O=C(O)CC1(CS[C@H](CCc2ccccc2)c2cccc(/C=C/c3ccc4sc(Cl)c(Cl)c4n3)c2)CC1", "values": [{"measurement": "bioavailability", "setting": "[1]", "value": 13, "unit": "%"}, {"measurement": "half-life", "setting": "[2]", "value": 4, "unit": "h"}, {"measurement": "IC50", "setting": "[3]", "value": 0.34, "unit": "nM"}, {"measurement": "pIC50", "setting": "[4]", "value": 8.79}, {"measurement": "clearance", "setting": "[5]", "value": 1.8, "unit": "mL/min/kg"}, {"measurement": "IC50", "setting": "[6]", "value": 0.37, "unit": "nM"}]}, {"compound": "CC(C)(O)c1ccccc1CC[C@@H](SCC1(CC(=O)O)CC1)c1cccc(/C=C/c2ccc3sc(Cl)c(Cl)c3n2)c1", "values": [{"measurement": "bioavailability", "setting": "[1]", "value": 29, "unit": "%"}, {"measurement": "half-life", "setting": "[2]", "value": 4.2, "unit": "h"}, {"measurement": "IC50", "setting": "[3]", "value": 0.89, "unit": "nM"}, {"measurement": "pIC50", "setting": "[4]", "value": 9.26}, {"measurement": "clearance", "setting": "[5]", "value": 0.57, "unit": "mL/min/kg"}, {"measurement": "pIC50", "setting": "[7]", "value": "< 4.34"}, {"measurement": "IC50", "setting": "[6]", "value": 0.34, "unit": "nM"}, {"measurement": "pIC50", "setting": "[8]", "value": "< 5.52"}]}, {"compound": "O=C(O)CC1(CS[C@H](CCc2ccccc2C(F)(F)F)c2cccc(/C=C/c3ccc4sc(Cl)c(Cl)c4n3)c2)CC1", "values": [{"measurement": "bioavailability", "setting": "[1]", "value": 1, "unit": "%"}, {"measurement": "half-life", "setting": "[2]", "value": 6.1, "unit": "h"}, {"measurement": "clearance", "setting": "[5]", "value": 0.4, "unit": "mL/min/kg"}]}, {"compound": "O=C(O)CC1(CS[C@H](CCc2ccc(F)cc2)c2cccc(/C=C/c3ccc4sc(Cl)c(Cl)c4n3)c2)CC1", "values": [{"measurement": "bioavailability", "setting": "[1]", "value": 5, "unit": "%"}, {"measurement": "IC50", "setting": "[3]", "value": 1.09, "unit": "nM"}, {"measurement": "pIC50", "setting": "[4]", "value": 8.67}, {"measurement": "clearance", "setting": "[5]", "value": 1.8, "unit": "mL/min/kg"}, {"measurement": "IC50", "setting": "[6]", "value": 0.65, "unit": "nM"}]}]}
